Test results as given in BindingDB's records for doi:10.1007/s00044-008-9125-0 (n/a, 2009).

Experiment: Inhibition of Bos taurus (bovine) heart cAMP-dependent phosphodiesterase assessed as inhibition of cyclic AMP to 5' AMP after 20 min by spectrophotometry

IC50	SMILES
2410 µM	Cc1cc(C)c2nc(-n3c(-c4ccccc4)nc4ccccc4c3=O)sc2c1
2110 µM	O=c1c2ccccc2nc(-c2ccccc2)n1-c1nc2cc(Cl)ccc2s1
2430 µM	CCOc1ccc2nc(-n3c(-c4ccccc4)nc4ccccc4c3=O)sc2c1
2070 µM	COc1cccc2sc(-n3c(-c4ccccc4)nc4c(Br)cc(Br)cc4c3=O)nc12
2490 µM	CCOc1ccc2sc(-n3c(-c4ccccc4)nc4ccccc4c3=O)nc2c1
2280 µM	Cc1cccc2sc(-n3c(-c4ccccc4)nc4ccccc4c3=O)nc12
2640 µM	O=c1c2ccccc2nc(-c2ccccc2)n1-c1nc2ccc([N+](=O)[O-])cc2s1
1520 µM	O=c1c2cc(Br)cc(Br)c2nc(-c2ccccc2)n1-c1nc2ccc([N+](=O)[O-])cc2s1
2120 µM	CCOc1ccc2nc(-n3c(-c4ccccc4)nc4c(Br)cc(Br)cc4c3=O)sc2c1
2420 µM	CCOc1cccc2sc(-n3c(-c4ccccc4)nc4ccccc4c3=O)nc12
2320 µM	COc1cccc2sc(-n3c(-c4ccccc4)nc4ccccc4c3=O)nc12
2120 µM	COc1ccc2nc(-n3c(-c4ccccc4)nc4c(Br)cc(Br)cc4c3=O)sc2c1
2030 µM	Cc1cccc2sc(-n3c(-c4ccccc4)nc4c(Br)cc(Br)cc4c3=O)nc12
2150 µM	CCOc1ccc2sc(-n3c(-c4ccccc4)nc4c(Br)cc(Br)cc4c3=O)nc2c1
2100 µM	O=c1c2ccccc2nc(-c2ccccc2)n1-c1nc2ccccc2s1
2420 µM	COc1ccc2nc(-n3c(-c4ccccc4)nc4ccccc4c3=O)sc2c1
1640 µM	O=c1c2cc(Br)cc(Br)c2nc(-c2ccccc2)n1-c1nc2ccc(Br)cc2s1
2090 µM	COc1ccc2sc(-n3c(-c4ccccc4)nc4c(Br)cc(Br)cc4c3=O)nc2c1
2160 µM	CCOc1cccc2sc(-n3c(-c4ccccc4)nc4c(Br)cc(Br)cc4c3=O)nc12
1440 µM	O=c1c2cc(Br)cc(Br)c2nc(-c2ccccc2)n1-c1nc2cc(Cl)ccc2s1
2130 µM	O=c1c2ccccc2nc(-c2ccccc2)n1-c1nc2ccc(Br)cc2s1
2070 µM	Cc1cc(C)c2nc(-n3c(-c4ccccc4)nc4c(Br)cc(Br)cc4c3=O)sc2c1
2020 µM	Cc1ccc2sc(-n3c(-c4ccccc4)nc4c(Br)cc(Br)cc4c3=O)nc2c1
2330 µM	COc1ccc2sc(-n3c(-c4ccccc4)nc4ccccc4c3=O)nc2c1
2270 µM	Cc1ccc2sc(-n3c(-c4ccccc4)nc4ccccc4c3=O)nc2c1
1930 µM	O=c1c2cc(Br)cc(Br)c2nc(-c2ccccc2)n1-c1nc2ccccc2s1
